# Measured values published in EP3293246A1, “LUBRICANT COMPOSITIONS CONTAINING DIUREA COMPOUNDS” (BASF SE, priority 2016, dated 2018).
# Assay: Solubility 0.5% in base oil Yubase 4, visual inspection of appearance
# Assay type: physicochemical
# Conditions: 0.5 g compound stirred with 99.5 g Yubase 4 at 100°C for 4 hours, cooled to room temperature
# Procedure: For the determination of the solubilities, 0.5 g of the compound under test was stirred with 99.5 g of Yubase 4 at 100°C for 4 hours and subsequently cooled to room temperature. The appearance of the solution was assessed by visual inspection.
row,Compound,Solubility 0.5% in Yubase 4; visible appearance
1,CCCCC(CC)CNC(=O)Nc1ccc(C)c(NC(=O)NCC(CC)CCCC)c1 (stereo not drawn) [Example 1],no clear solution
2,CCCCCCCCC=CCCCCCCCCNC(=O)Nc1ccc(C)c(NC(=O)NCCCCCCCCC=CCCCCCCCC)c1 [Example 5],no clear solution
3,Cc1ccc(NC(=O)NC(C)CCCC(C)C)cc1NC(=O)NC(C)CCCC(C)C (stereo not drawn) [Example 6],no clear solution
